Data reported in ChEMBL document CHEMBL1147576, “Synthesis and evaluation of S-4-(3-thienyl)phenyl-alpha-methylacetic acid” (Bioorg Med Chem Lett, 2004).

Each compound was assayed against T1, Prostaglandin G/H synthase 1 (Ovis aries, UniProt P05979) (assay: In vitro inhibitory concentration against ram seminal vesicle prostaglandin G/H synthase 1).
T1 sequence (P05979 whole entry): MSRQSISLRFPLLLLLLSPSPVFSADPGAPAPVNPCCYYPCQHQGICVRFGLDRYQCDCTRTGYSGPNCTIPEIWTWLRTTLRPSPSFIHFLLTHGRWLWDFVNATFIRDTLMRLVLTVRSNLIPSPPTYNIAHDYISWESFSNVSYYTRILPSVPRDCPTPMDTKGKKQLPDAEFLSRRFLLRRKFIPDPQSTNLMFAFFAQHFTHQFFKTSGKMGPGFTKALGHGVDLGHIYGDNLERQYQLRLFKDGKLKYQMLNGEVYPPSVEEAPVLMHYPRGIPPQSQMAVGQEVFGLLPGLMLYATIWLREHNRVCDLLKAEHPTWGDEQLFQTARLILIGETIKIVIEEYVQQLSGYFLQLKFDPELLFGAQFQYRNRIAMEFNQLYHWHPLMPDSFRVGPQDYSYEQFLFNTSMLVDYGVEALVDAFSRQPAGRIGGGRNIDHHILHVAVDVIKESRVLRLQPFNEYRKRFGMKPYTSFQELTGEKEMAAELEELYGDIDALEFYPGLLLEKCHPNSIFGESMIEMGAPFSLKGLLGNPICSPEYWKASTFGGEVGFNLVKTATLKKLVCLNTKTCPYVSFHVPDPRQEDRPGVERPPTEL
Type: tissue-based
In the case of `C[C@H](C(=O)O)c1ccc(-c2ccsc2)cc1`, the IC50 is reported as 45.2 µM.

These compounds were tested on Rattus norvegicus (assay: Effective dose for Anti-inflammatory activity was determined by carrageenan induced rat hind paw edema model).
Type: functional
In the case of `COc1ccc2cc(C(C)C(=O)O)ccc2c1` (configuration not stated), the ED50 is reported as 2.35 mg/kg.
For `C[C@H](C(=O)O)c1ccc(-c2ccsc2)cc1`, the ED50 was 1.85 mg/kg.
For `CC(C(=O)O)c1ccc(-c2ccsc2)cc1` (configuration not stated) [ATLIPROFEN], the ED50 was 5.74 mg/kg.
Work on `CC(C)Cc1ccc([C@H](C)C(=O)O)cc1` [DEXIBUPROFEN] yielded an ED50 of 7.08 mg/kg.
`CC(C)Cc1ccc(C(C)C(=O)O)cc1` (configuration not stated) [IBUPROFEN] gave an ED50 of 33.2 mg/kg.
With `COc1ccc2cc([C@H](C)C(=O)O)ccc2c1` [NAPROXEN] the ED50 was 0.99 mg/kg.
